Source: patent publication US9440957B2, “Compounds and compositions for modulating EGFR Activity” (Novartis AG, priority 2012, dated 2016)
Like-named read-outs stand apart in the source and are kept apart here.

Key:
[1] = target: T1, EGFR(L858R/T790M) (Homo sapiens, UniProt P00533, L858R/T790M); test: EGFR biochemical assay (HTRF), IC50 determinations
T1 construct: purchased from Carna (GST-a.a. 669-1210)
Summary of the method: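 HTRF kinase reaction with biotin-TK peptide at room temperature, quenched with EDTA at 60 min and detected with PT66K/SAXL after 1 h. Without preincubation, enzyme starts the reaction with compound, ATP and peptide present. With preincubation, compound, enzyme and peptide sit at room temperature for a set time before ATP is added.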

[2] = target: human EGFR WT (NIH/3T3 cells, EGF-induced) (Homo sapiens, UniProt P00533); test: EGFR target modulation in engineered NIH/3T3 cell lines (phospho-EGFR Y1068 AlphaLISA), EGFR WT; assay type: cell-based; conditions: engineered NIH/3T3 cells, read-out: NIH3T3 IC50 (μM) EGFR (WT)
Sequence of human EGFR WT (NIH/3T3 cells, EGF-induced) (P00533 25-1210): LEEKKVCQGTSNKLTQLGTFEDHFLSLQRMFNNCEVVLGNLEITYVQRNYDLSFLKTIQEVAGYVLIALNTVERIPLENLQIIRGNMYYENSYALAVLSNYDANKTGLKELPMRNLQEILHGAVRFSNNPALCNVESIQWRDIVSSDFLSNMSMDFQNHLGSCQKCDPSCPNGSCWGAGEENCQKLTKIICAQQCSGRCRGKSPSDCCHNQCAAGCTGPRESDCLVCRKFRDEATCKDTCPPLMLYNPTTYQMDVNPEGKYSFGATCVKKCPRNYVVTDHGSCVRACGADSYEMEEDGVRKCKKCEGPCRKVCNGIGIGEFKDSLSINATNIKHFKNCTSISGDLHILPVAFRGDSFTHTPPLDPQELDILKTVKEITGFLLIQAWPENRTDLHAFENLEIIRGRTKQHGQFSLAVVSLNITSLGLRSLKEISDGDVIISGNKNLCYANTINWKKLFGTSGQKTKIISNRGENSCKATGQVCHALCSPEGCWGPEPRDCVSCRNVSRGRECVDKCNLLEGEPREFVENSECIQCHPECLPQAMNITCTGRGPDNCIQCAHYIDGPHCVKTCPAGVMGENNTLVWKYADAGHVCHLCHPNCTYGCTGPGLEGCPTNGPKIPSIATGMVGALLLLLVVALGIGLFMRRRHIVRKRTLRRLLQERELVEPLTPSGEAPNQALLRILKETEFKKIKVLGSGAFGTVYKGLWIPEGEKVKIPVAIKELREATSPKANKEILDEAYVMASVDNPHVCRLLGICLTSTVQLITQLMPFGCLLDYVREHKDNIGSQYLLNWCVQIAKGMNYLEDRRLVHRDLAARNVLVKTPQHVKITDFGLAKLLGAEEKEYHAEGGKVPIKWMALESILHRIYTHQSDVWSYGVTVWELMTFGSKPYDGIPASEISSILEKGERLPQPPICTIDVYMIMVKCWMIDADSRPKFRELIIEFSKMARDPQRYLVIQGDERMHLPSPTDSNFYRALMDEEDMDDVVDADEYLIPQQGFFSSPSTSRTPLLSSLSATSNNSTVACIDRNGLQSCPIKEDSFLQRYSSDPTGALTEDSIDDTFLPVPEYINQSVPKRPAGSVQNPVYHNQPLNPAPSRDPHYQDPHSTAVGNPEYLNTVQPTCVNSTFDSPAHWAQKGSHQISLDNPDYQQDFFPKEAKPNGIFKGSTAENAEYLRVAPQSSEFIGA
Summary of the method: (§1)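 Engineered NIH/3T3 cells expressing EGFR variants treated 3 h at 37 °C with 12-point 1:3 compound series (top stock 10 μM); only WT cells stimulated with 50 ng/ml EGF for 5 min before lysis. Phospho-Y1068 measured by AlphaLISA with total-EGFR antibody; IC50 from non-linear fitting.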

[3] = target: human EGFR L858R (NIH/3T3 cells) (Homo sapiens, UniProt P00533, L858R); test: EGFR target modulation in engineered NIH/3T3 cell lines (phospho-EGFR Y1068 AlphaLISA), EGFR L858R; assay type: cell-based; conditions: engineered NIH/3T3 cells, read-out: NIH3T3 IC50 (μM) EGFR (L858R)
Sequence of human EGFR L858R (NIH/3T3 cells) (P00533 25-1210 L858R): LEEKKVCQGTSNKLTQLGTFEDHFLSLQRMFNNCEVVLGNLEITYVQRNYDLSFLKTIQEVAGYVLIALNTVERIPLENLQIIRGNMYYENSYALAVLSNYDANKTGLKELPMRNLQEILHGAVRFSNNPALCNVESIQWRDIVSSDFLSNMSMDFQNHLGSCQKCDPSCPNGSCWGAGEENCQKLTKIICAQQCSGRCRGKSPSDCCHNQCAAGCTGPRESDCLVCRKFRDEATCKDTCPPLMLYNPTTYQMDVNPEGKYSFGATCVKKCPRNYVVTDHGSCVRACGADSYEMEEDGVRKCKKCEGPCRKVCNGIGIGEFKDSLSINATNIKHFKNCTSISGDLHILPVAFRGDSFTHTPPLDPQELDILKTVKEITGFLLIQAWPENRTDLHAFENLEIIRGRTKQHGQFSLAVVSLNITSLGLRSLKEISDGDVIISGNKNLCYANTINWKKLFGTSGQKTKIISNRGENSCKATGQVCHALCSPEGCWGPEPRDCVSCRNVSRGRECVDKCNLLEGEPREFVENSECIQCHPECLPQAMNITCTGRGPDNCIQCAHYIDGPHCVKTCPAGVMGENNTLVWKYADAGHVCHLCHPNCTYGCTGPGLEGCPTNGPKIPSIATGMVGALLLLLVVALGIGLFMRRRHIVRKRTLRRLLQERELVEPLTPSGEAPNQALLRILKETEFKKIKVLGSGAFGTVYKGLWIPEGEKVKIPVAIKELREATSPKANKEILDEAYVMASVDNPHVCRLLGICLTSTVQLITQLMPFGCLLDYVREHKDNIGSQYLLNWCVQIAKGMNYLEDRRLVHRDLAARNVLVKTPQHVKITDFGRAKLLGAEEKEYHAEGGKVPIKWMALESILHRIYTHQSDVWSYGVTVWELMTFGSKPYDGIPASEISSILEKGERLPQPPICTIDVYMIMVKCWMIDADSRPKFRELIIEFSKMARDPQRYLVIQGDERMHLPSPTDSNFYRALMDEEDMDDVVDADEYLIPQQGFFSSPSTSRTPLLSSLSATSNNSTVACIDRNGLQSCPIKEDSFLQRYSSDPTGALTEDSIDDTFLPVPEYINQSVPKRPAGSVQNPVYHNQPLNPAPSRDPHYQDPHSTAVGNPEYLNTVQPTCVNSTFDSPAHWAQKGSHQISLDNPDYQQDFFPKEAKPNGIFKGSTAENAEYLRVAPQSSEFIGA
Summary of the method: as §1

[4] = target: human EGFR L858R/T790M (NIH/3T3 cells) (Homo sapiens, UniProt P00533, L858R/T790M); test: EGFR target modulation in engineered NIH/3T3 cell lines (phospho-EGFR Y1068 AlphaLISA), EGFR L858R/T790M; assay type: cell-based; conditions: engineered NIH/3T3 cells, read-out: NIH3T3 IC50 (μM) EGFR (L858R/T790M)
Summary of the method: as §1

[5] = target: H1975 (EGFR L858/T790M) (Homo sapiens, UniProt P00533, L858R/T790M); test: EGFR target modulation in H1975 cell line (phospho-EGFR Y1173 ELISA); assay type: cell-based
Method: (§2) EGFR Target Modulation in H1975, H3255 and HCC827 Cell Lines Tissue Culture. Cells were maintained in 10% FBS/RPMI supplemented with 100 μg/ml Penicillin/Streptomycin (Hyclone #SH30236.01). […] The cells were allowed to incubate overnight in a 37° C., 5% CO2 humidified tissue culture incubator. […] The serial diluted compounds were transferred to the plate containing cells by using a 50 nl Pin Head device (Perkin Elmer) and the cells were placed back in the incubator for 3 hours. Phospho-EGFR ([…]) Target Modulation Assay. The media was reduced to 20 ul using a Bio-Tek ELx 405 SelectTM plate washer. […] The plates were shaken at 4° C. for 20 minutes. An aliquot of 25 ul from each well was transferred to pEGFR(Y1173) ELISA plates for analysis. Phospho-EGFR ([…]) ELISA. Solid white high-binding ELISA plates (Greiner #781074) were coated with 5 ug/ml anti-EGFR capture antibody (R&D Systems #AF231) overnight in 50 mM carbonate/bicarbonate pH 9.5 buffer. Plates were blocked with 1% BSA (Sigma #A7030) in PBS for 1 hour at room temperature. Wash steps were carried out with a Bio-Tek ELx405 SelectTM using 4 cycles of 100 ul TBS-T (20 mM Tris, 137 mM NaCl, 0.05% Tween-20) per well. […] Lysis was allowed to occur for 20 minutes on ice. A 25 ul aliquot was added to each well of the blocked ELISA plate and incubated overnight at 4° C. with gentle shaking. […] After washing, 1:2,000 anti-rabbit-HRP (Cell Signaling #7074) in 0.2% BSA/TBS-T was added and incubated for 1 hour at room temperature. Chemiluminescent detection was carried out with SuperSignal ELISA Pico substrate (ThermoScientific #37069). Signal was read on EnVision plate reader using built-in UltraLUM setting. Data Analysis. Control cells treated with EGF were set to 100% maximum response. […] With these parameters, the IC50's for each compound in each cell line was calculated using non-linear curve fitting analysis.

[6] = target: H3255 (EGFR L858R) (Homo sapiens, UniProt P00533, L858R); test: EGFR target modulation in H3255 cell line (phospho-EGFR Y1173 ELISA); assay type: cell-based
Sequence of H3255 (EGFR L858R) (P00533 25-1210 L858R): as above
Method: as §2

[7] = target: HEKn (EGFR WT) (Homo sapiens, UniProt P00533); test: EGFR target modulation in HEKn (EGFR-WT) cell line (phospho-EGFR Y1173 ELISA); assay type: cell-based; conditions: value outside parentheses
Sequence of HEKn (EGFR WT) (P00533 25-1210): as the sequence (P00533 25-1210) above
Method: EGFR Target Modulation in HEKn (EGFR-WT) Cell Line Tissue Culture. Human neonatal epithelial keratinocytes (Invitrogen #C-001-5C) were maintained in EpiLife media (Invitrogen #[…]) supplemented with growth factors (Invitrogen #S-001-5). Cells were harvested with 0.05% Trypsin/EDTA (Hyclone #SH30236.01) and quenched with 5% FBS/EpiLife media. […] The serial diluted compounds were transferred to the plate containing cells by using a 50 nl Pin Head device (Perkin Elmer) and the cells were placed back in the incubator for 3 hours. […] Phospho-EGFR (Y1173) ELISA. Solid white high-binding ELISA plates (Greiner #781074) were coated with 5 ug/ml anti-EGFR capture antibody (R&D Systems #AF231) overnight in 50 mM carbonate/bicarbonate pH 9.5 buffer. […] Wash steps were carried out with a Bio-Tek ELx405 SelectTM using 4 cycles of 100 ul TBS-T (20 mM Tris, 137 mM NaCl, 0.05% Tween-20) per well. […] Lysis was allowed to occur for 20 minutes on ice. A 25 ul aliquot was added to each well of the blocked ELISA plate and incubated overnight at 4° C. with gentle shaking. […] After washing, 1:2,000 anti-rabbit-HRP (Cell Signaling #7074) in 0.2% BSA/TBS-T was added and incubated for 1 hour at room temperature. Chemiluminescent detection was carried out with SuperSignal ELISA Pico substrate (ThermoScientific #37069). Signal was read on EnVision plate reader using built-in UltraLUM setting. Data Analysis. Control cells treated with EGF were set to 100% maximum response. […] With these parameters, the IC50's for each compound in each cell line was calculated using non-linear curve fitting analysis.

[8] = EGFR (L858R/T790M) with 90 min pre-incubation, read-out: IC50 (μM) Column B
[9] = EGFR (L858R/T790M) with no pre-incubation, read-out: IC50 (μM) Column A

COc1cncc(C(=O)Nc2nc3cccc(C)c3n2[C@@H]2CCCCN(C(=O)/C=C/CN(C)C)C2)c1 [Example 17-79]
IC50 [1, 8]: < 0.001 µM | IC50 [1, 9]: 0.005 µM | IC50 [2]: 0.062 µM | IC50 [3]: 0.005 µM | IC50 [4]: 0.002 µM | IC50 [5]: 0.002 µM | IC50 [6]: 0.007 µM | IC50 [7]: 0.176 µM

C=CC(=O)N1CCCC[C@@H](n2c(NC(=O)c3ccccc3)nc3cccc(CN4CCC(O)C4)c32)C1 (stereo partly shown) [Example 17-114]
IC50 [1, 8]: < 0.001 µM | IC50 [1, 9]: 0.001 µM | IC50 [2]: 0.143 µM | IC50 [3]: 0.002 µM | IC50 [4]: < 0.001 µM | IC50 [5]: < 0.001 µM | IC50 [6]: 0.004 µM | IC50 [7]: 0.1 µM

Cc1cc(C(=O)Nc2nc3cccc(Cl)c3n2[C@@H]2CCCCN(C(=O)/C=C/CN3CCC3)C2)ccn1 [Example 3-12]
IC50 [1, 8]: 0.011 µM | IC50 [1, 9]: 0.133 µM | IC50 [2]: 1.13 µM | IC50 [3]: 0.05 µM | IC50 [4]: 0.123 µM | IC50 [5]: 0.186 µM | IC50 [6]: 0.2 µM | IC50 [7]: > 10 µM

Cc1cc(C(=O)Nc2nc3cccc(C)c3n2[C@@H]2CCCCN(C(=O)/C=C/CN(C)C)C2)ccn1 [Example 7, (R,E)-N-(1-(1-(4-(dimethylamino)but-2-enoyl)azepan-3-yl)-7-methyl-1H-benzo[d]imidazol-2-yl)-2-methylisonicotinamide]
IC50 [1, 8]: < 0.001 µM | IC50 [1, 9]: 0.002 µM | IC50 [2]: 0.019 µM | IC50 [3]: 0.001 µM | IC50 [4]: 0.001 µM | IC50 [5]: 0.001 µM | IC50 [6]: 0.002 µM | IC50 [7]: 0.074 µM

Cc1cc(C(=O)Nc2nc3cccc(C)c3n2[C@@H]2CCCCN(C(=O)/C=C/CN(C)C)C2)cc(Cl)n1 [Example 17-74]
IC50 [1, 8]: < 0.001 µM | IC50 [1, 9]: 0.003 µM | IC50 [2]: 0.076 µM | IC50 [3]: 0.004 µM | IC50 [4]: 0.002 µM | IC50 [5]: 0.002 µM | IC50 [6]: 0.011 µM | IC50 [7]: 0.261 µM

C=CC(=O)N1CCC[C@@H](n2c(NC(=O)c3cccc(C(F)(F)F)c3)nc3cc(COCCOC)ccc32)C1 [Example 17-124]
IC50 [1, 8]: 0.008 µM | IC50 [1, 9]: 0.2 µM | IC50 [2]: > 10 µM | IC50 [3]: 0.271 µM | IC50 [4]: 0.023 µM | IC50 [5]: 0.022 µM | IC50 [6]: 0.49 µM | IC50 [7]: > 10 µM

C=CC(=O)N1CCCC[C@@H](n2c(NC(=O)c3ccccc3)nc3cc(CN4CCCC4)cc(C)c32)C1 [Example 17-111]
IC50 [1, 8]: < 0.001 µM | IC50 [1, 9]: 0.004 µM | IC50 [2]: 0.047 µM | IC50 [3]: 0.003 µM | IC50 [4]: 0.001 µM | IC50 [5]: < 0.001 µM | IC50 [6]: 0.008 µM | IC50 [7]: 0.203 µM

Cc1cccc2nc(NC(=O)c3ccncn3)n(C3CCCCN(C(=O)/C=C/CN(C)C)C3)c12 (stereo not shown) [Example 17-37]
IC50 [1, 8]: 0.005 µM | IC50 [1, 9]: 0.062 µM | IC50 [2]: 1.65 µM | IC50 [3]: 0.032 µM | IC50 [4]: 0.042 µM | IC50 [5]: 0.128 µM | IC50 [6]: 0.135 µM | IC50 [7]: > 10 µM

Cc1cccc2nc(NC(=O)c3ccnc(F)c3)n(C3CCCCN(C(=O)/C=C/CN(C)C)C3)c12 (stereo not shown) [Example 17-58]
IC50 [1, 8]: < 0.001 µM | IC50 [1, 9]: 0.005 µM | IC50 [2]: 0.026 µM | IC50 [3]: 0.002 µM | IC50 [4]: 0.002 µM | IC50 [5]: 0.003 µM | IC50 [6]: 0.009 µM | IC50 [7]: 0.154 µM

Cc1cccc2nc(NC(=O)c3cc(F)ccc3F)n(C3CCCCN(C(=O)/C=C/CN(C)C)C3)c12 (stereo not shown) [Example 17-29]
IC50 [1, 8]: < 0.001 µM | IC50 [1, 9]: 0.02 µM | IC50 [2]: 0.82 µM | IC50 [3]: 0.028 µM | IC50 [4]: 0.017 µM | IC50 [5]: 0.093 µM | IC50 [6]: 0.29 µM | IC50 [7]: 2.61 µM

C=CC(=O)N1CCC[C@@H](n2c(NC(=O)c3ccccc3)nc3cccc(C)c32)C1 [Example 17-108]
IC50 [1, 8]: 0.005 µM | IC50 [1, 9]: 0.048 µM | IC50 [2]: > 10 µM | IC50 [3]: 0.306 µM | IC50 [4]: 0.021 µM | IC50 [5]: 0.014 µM | IC50 [6]: 0.044 µM | IC50 [7]: > 10 µM

Cc1cccc2nc(NC(=O)c3ccnnc3)n([C@@H]3CCCCN(C(=O)C#CCN(C)C)C3)c12 [Example 17-87]
IC50 [1, 8]: < 0.001 µM | IC50 [1, 9]: < 0.001 µM | IC50 [2]: 0.013 µM | IC50 [3]: < 0.001 µM | IC50 [4]: < 0.001 µM | IC50 [5]: 0.002 µM | IC50 [6]: < 0.001 µM | IC50 [7]: 0.037 µM

COc1cccc2nc(NC(=O)c3ccnnc3)n([C@@H]3CCCCN(C(=O)/C=C/CN(C)C)C3)c12 [Example 17-83]
IC50 [1, 8]: 0.001 µM | IC50 [1, 9]: 0.02 µM | IC50 [2]: 0.6 µM | IC50 [3]: 0.022 µM | IC50 [4]: 0.027 µM | IC50 [5]: 0.029 µM | IC50 [6]: 0.072 µM | IC50 [7]: 2.33 µM

C=CC(=O)N1CCCC[C@@H](n2c(NC(=O)c3ccnnc3)nc3cccc(Cl)c32)C1 [Example 17-15]
IC50 [1, 8]: < 0.001 µM | IC50 [1, 9]: 0.012 µM | IC50 [2]: 0.204 µM | IC50 [3]: 0.017 µM | IC50 [4]: 0.006 µM | IC50 [5]: 0.006 µM | IC50 [6]: 0.022 µM | IC50 [7]: 0.259 µM
